# Results: ChEMBL document CHEMBL6087390, “Pyridine and Pyrimidine hybrids as privileged scaffolds in antimalarial drug discovery: A recent development” (Bioorg Med Chem Lett, 2024)
# Legend:
# [1] = tested on: Plasmodium falciparum; experiment: microbe, parasite or virus in culture; settings: 3D7
# Description: Antiplasmodial activity against Plasmodium falciparum 3D7
# [2] = tested on: Plasmodium falciparum; experiment: Antimalarial activity against Plasmodium falciparum RKL9; format: functional, organism-based
# [3] = tested on: Plasmodium falciparum; experiment: microbe, parasite or virus in culture; settings: 3D7, 48 h
# [4] = Cytotoxicity against human MRC5 cells assessed as inhibition of cell growth incubated for 72 hrs by MTT assay; format: toxicity, cell-based
# [5] = tested on: Plasmodium falciparum; experiment: Antiplasmodial activity against Plasmodium falciparum K1; format: functional, organism-based
# [6] = tested on: Plasmodium falciparum; experiment: Antimalarial activity against Plasmodium falciparum 3D7 assessed as reduction in malarial growth measured after 48 hrs by SYBR green dye based analysis; format: functional, organism-based; settings: 3D7, 48 h
# [7] = tested on: Plasmodium falciparum; experiment: Antimalarial activity against CQ-resistant Plasmodium falciparum Dd2; format: functional, organism-based
# [8] = tested on: HepG2; experiment: Cytotoxicity against human HepG2 cells assessed as reduction in cell viability measured for 48 hrs by SRB assay; format: functional
# [9] = tested on: Plasmodium falciparum; experiment: Antiplasmodial activity against Plasmodium falciparum Dd2 assessed as reduction in parasite growth measured after 72 hrs by SYBR Green 1 staining based assay; format: functional, organism-based; settings: Dd2, 72 h
# [10] = tested on: Plasmodium falciparum; format: functional, organism-based; settings: W2
# [11] = Cytotoxicity against african green monkey Vero cells assessed as cell viability measured after 48 hrs by MTT assay; format: toxicity, cell-based, Chlorocebus sabaeus; settings: chlorocebus sabaeus, time 48 hrs
# [12] = tested on: HepG2; experiment: Cytotoxicity against human HepG2 cells assessed as reduction in cell viability measured for 48 hrs by MTT assay; format: functional
# [13] = tested on: Plasmodium falciparum; experiment: Antiplasmodial activity against multidrug resistant Plasmodium falciparum K1 assessed as reduction in parasite growth by [3H]-hypoxanthine incorporation assay; format: functional, organism-based
# [14] = tested on: Plasmodium falciparum; experiment: microbe, parasite or virus in culture; settings: 3D7, 72 h
smiles,measurement,setting,value
Cc1n[nH]c2c1C(c1ccc(F)cc1)c1c(nc3oc(=O)c(C#N)c(N)c3c1N)O2 (centres undefined),IC50,[1],1.48 µg/mL
COc1cc(-c2cc(-c3cc(Cl)sc3Cl)nc(N)n2)ccc1OCc1ccccc1,IC50,[2],2.9 µg/mL
same,IC50,[3],6.3 µg/mL
COc1cc(-c2cc(-c3ccco3)nc(S)n2)ccc1OCc1ccccc1,IC50,[2],5.4 µg/mL
same,IC50,[3],12.2 µg/mL
Cc1cccc(-n2nc3ccc(S(=O)(=O)N4CCC(C)CC4)cn3c2=O)c1,IC50 at 72 h,[4],> 64 µM
same,IC50,[5],8 µM
COc1cc(-c2cc(-c3ccco3)nc(N)n2)ccc1OCc1ccccc1,IC50,[2],10.5 µg/mL
same,IC50,[3],20 µg/mL
Cc1ccc(-c2cc(-c3c(C)nn(-c4ccccc4)c3-n3ccnc3)n3c(n2)nc2ccccc23)cc1,IC50,[3],1.84 µg/mL
Cc1cc(=O)oc2cc(OCc3cn(-c4ccc(S(=O)(=O)N5CCN(c6ccccn6)CC5)cc4)nn3)ccc12,IC50,[1],> 71.7 µg/mL
C(=C\c1cn(-c2ccccc2)nc1-c1ccccc1)/c1nnc(-c2ccncc2)o1,IC50,[2],0.8 µg/mL
same,IC50,[6],0.5 µg/mL
COc1ccc2nc(/C=C/c3ccncc3)cc(NCCN(C)C)c2c1,IC50,[7],0.03 µM
Cc1cc(=O)oc2cc(OCc3cn(-c4ccc(S(=O)(=O)N5CCN(c6ccccn6)CC5)cc4)nn3)c(Cl)cc12,IC50,[1],59.1 µg/mL
Cc1ccccc1-n1nnnc1C(c1cncnc1)N(Cc1cc(F)cc(C(F)(F)F)c1)C1CC1 (centres undefined),CC50,[8],36 µM
same,EC50,[9],1.2 µM
Cc1ccccc1N(C)C(=O)C(c1cccnc1)N(Cc1cccc(OC(F)(F)F)c1)C1CC1 (centres undefined),CC50,[8],> 30 µM
NCCCCNc1ncnc2c1cnn2-c1ccc(Cl)cc1,IC50,[10],13.2 µM
O=c1cc(OCc2cn(-c3ccc(S(=O)(=O)N4CCN(c5ccccn5)CC4)cc3)nn2)c2ccccc2o1,IC50,[1],73.5 µg/mL
COc1ccccc1C(=O)/C=C/c1ccccn1,IC50,[1],0.48 µg/mL
Cc1nn(-c2ccccc2)c(-n2ccnc2)c1-c1cc(-c2cccs2)nc2nc3ccccc3n12,IC50,[3],1.75 µg/mL
Cc1cc(C)nc(NS(=O)(=O)c2ccc(-n3cc(COc4cc5oc(=O)cc(C)c5cc4Cl)nn3)cc2)n1,IC50,[6],8.96 µM
Cc1nn(-c2ccccc2)c(-n2ccnc2)c1-c1cc(-c2ccc(F)cc2)nc2nc3ccccc3n12,IC50,[3],0.03 µg/mL
CC/C=C\C/C=C\C/C=C\C/C=C\C/C=C\C/C=C\CCC(=O)O [DOCONEXENT],IC50,[1],0.004 µM
O=S(=O)(c1ccc(-n2cc(COc3ccc(Br)cc3)nn2)cc1)N1CCN(c2ccccn2)CC1,IC50,[1],46 µg/mL
COc1ccc(-c2cc(-c3ccco3)nc(S)n2)cc1OCc1ccccc1,IC50,[2],2 µg/mL
same,IC50,[3],5.1 µg/mL
Cc1ccc(-n2ncc3c(NCCCCNS(=O)(=O)c4ccc(C)cc4)ncnc32)cc1,IC50,[10],12.2 µM
COc1ccc2cc3[n+](cc2c1OCc1cn(-c2ccc(S(=O)(=O)Nc4nc(C)cc(C)n4)cc2)nn1)CCc1cc2c(cc1-3)OCO2.[Cl-],IC50,[6],4 µg/mL
CCCN(C(C(=O)N(C)c1ccccc1C)c1cccnc1)C1(c2cccc(C(F)(F)F)c2)CC1 (centres undefined),CC50,[8],> 15 µM
Cc1cc(C)cc(N(Cc2cc(C)ccc2C)S(=O)(=O)c2cccn3c(C)nnc23)c1,IC50 at 72 h,[4],48.5 µM
same,IC50,[5],11.5 µM
CC(C)=CCC1=C(OCc2cn(-c3cccnc3)nn2)C(=O)c2ccccc2C1=O,CC50 at 48 h,[11],1030 µM
O=C1CCCN1c1ccc(-n2nc3c(S(=O)(=O)N4CCOCC4)cccn3c2=O)cc1,IC50 at 72 h,[4],> 64 µM
same,IC50,[5],27.8 µM
COc1ccc(-n2cc(/C=N/NC(=O)c3ccncc3)nn2)cc1,IC50,[1],23.2 µM
COc1ncnc(NS(=O)(=O)c2ccc(N)cc2)c1OC [SULFADOXINE],IC50,[10],15 µM
Cc1cc(C)nc(NS(=O)(=O)c2ccc(-n3cc(COc4ccc5ccc(=O)oc5c4)nn3)cc2)n1,IC50,[6],> 79.4 µM
CCc1ccccc1N(C)C(=O)C(c1cncnc1)N(Cc1cccc(C(F)(F)F)c1)C1CC1 (centres undefined),CC50,[12],> 30 µM
same,EC50,[13],0.57 µM
FC(F)(F)c1cccc(CN(C2CC2)C(c2cccnc2)c2nnnn2C2CC2)c1 (centres undefined),EC50,[9],3 µM
Cc1ccccc1N(C)C(=O)C(c1cncnc1)N(Cc1cccc(OC(F)(F)F)c1)C1CC1 (centres undefined),CC50,[12],> 30 µM
same,EC50,[13],0.59 µM
O=C(C(c1cccnc1)N(Cc1cccc(C(F)(F)F)c1)C1CC1)N1CCCCC1 (centres undefined),CC50,[8],> 20 µM
COc1ccc2nc(/C=C/c3ccncc3)ccc2c1,IC50,[7],> 10 µM
Cc1ccc(-n2ncc3c(NCCCCN)ncnc32)cc1,IC50,[10],18.2 µM
COc1ccc(-n2cc(-c3cncc4ccccc34)nn2)cn1,IC50,[1],62 µM
Cc1ccc(-c2nn(-c3ccccc3)cc2/C=C/c2nnc(-c3ccncc3)o2)cc1,IC50,[2],1.7 µg/mL
same,IC50,[6],0.4 µg/mL
COc1ccc(-c2cc(-c3ccco3)nc(N)n2)cc1OCc1ccccc1,IC50,[2],3.2 µg/mL
same,IC50,[3],4.4 µg/mL
Cc1cc(C)nc(NS(=O)(=O)c2ccc(-n3cc(COc4ccc5c(C)cc(=O)oc5c4)nn3)cc2)n1,IC50,[6],20.5 µM
O=S(=O)(c1ccc(-n2cc(COc3ccc(Cl)cc3)nn2)cc1)N1CCN(c2ccccn2)CC1,IC50,[1],> 50 µg/mL
COc1ccc2cc3[n+](cc2c1OCc1cn(-c2ccc(S(=O)(=O)N4CCN(c5ccccn5)CC4)cc2)nn1)CCc1cc2c(cc1-3)OCO2.[Cl-],IC50,[1],1 µg/mL
Cc1ccccc1N(C)C(=O)C(c1cccnc1)N(Cc1cccc(C(F)(F)F)c1)C1CC1 (centres undefined),CC50,[8],> 20 µM
Cc1n[nH]c2c1C(c1ccc(Br)cc1)c1c(nc3oc(=O)c(C#N)c(N)c3c1N)O2 (centres undefined),IC50,[1],1.85 µg/mL
CC(C)=CCC1=C(O)C(=O)c2ccccc2C1=O [LAPACHOL],CC50 at 48 h,[11],> 4130 µM
O=S(=O)(NCCCCNc1ncnc2c1cnn2-c1ccc(Cl)cc1)c1ccc(F)cc1,IC50,[10],43.4 µM
Cc1nn(-c2ccccc2)c(-n2ccnc2)c1-c1cc(-c2cc[nH]c2)nc2nc3ccccc3n12,IC50,[3],0.07 µg/mL
Cc1ccccc1N(C)C(=O)C(c1cccnc1)N(Cc1cc(C(F)(F)F)ccc1F)C1CC1 (centres undefined),CC50,[8],> 30 µM
CC(C)=CCC1=C(OCc2cn(Cc3ccccn3)nn2)C(=O)c2ccccc2C1=O,CC50 at 48 h,[11],658 µM
Cc1ccc(NS(=O)(=O)c2ccc(Nc3cc(C)nc4nc(C(F)(F)F)nn34)cc2)cc1,IC50,[14],0.03 µM
O=C(N/N=C/c1cn(-c2ccccc2)nn1)c1ccncc1,IC50,[1],23.1 µM
C[C@H]1[C@H](OC(=O)CCC(=O)O)O[C@@H]2O[C@@]3(C)CC[C@H]4[C@H](C)CC[C@@H]1[C@@]24OO3 [ARTESUNATE],IC50,[14],1 µM
COc1ccc2nc(/C=C/c3ccncc3)cc(Cl)c2c1,IC50,[7],2.54 µM
Cc1cc(C)nc(NS(=O)(=O)c2ccc(-n3cc(COc4ccc5c(-c6ccccc6)c(C)c(=O)oc5c4)nn3)cc2)n1,IC50,[6],> 67.3 µM
Cc1ccc(S(=O)(=O)NCCCCNc2ncnc3c2cnn3-c2ccc(F)cc2)cc1,IC50,[10],5.13 µM
CN(C(=O)C(c1cncnc1)N(Cc1cccc(C(F)(F)F)c1)C1CC1)c1ccccc1 (centres undefined),CC50,[12],> 30 µM
same,EC50,[13],2 µM
COc1ccc(-c2cc(-c3cc(Cl)sc3Cl)nc(N)n2)cc1OCc1ccccc1,IC50,[2],2.4 µg/mL
same,IC50,[3],5.4 µg/mL
O=C(N/N=C/c1cnn(-c2ccccc2)n1)c1ccncc1,IC50,[1],20.2 µM
COc1cc(-c2cc(-c3cc(Cl)sc3Cl)nc(S)n2)ccc1OCc1ccccc1,IC50,[2],6.1 µg/mL
same,IC50,[3],9.9 µg/mL
NCCCCNc1ncnc2c1cnn2-c1ccc(F)cc1,IC50,[10],21.6 µM
CCCN(C(c1cncnc1)c1nnnn1-c1ccccc1C)C1(c2cccc(C(F)(F)F)c2)CC1 (centres undefined),CC50,[8],13 µM
CCc1ccccc1N(C)C(=O)C(c1cccnc1)N(Cc1cccc(C(F)(F)F)c1)C1CC1 (centres undefined),CC50,[8],> 30 µM
Clc1ccc2c(NCCN3CCN(c4ncccn4)CC3)ccnc2c1,IC50,[14],0.108 µM
same,IC50,[5],0.277 µM
Cc1cc(Nc2ccc(S(=O)(=O)Nc3ccc(F)cc3)cc2)n2nc(C(F)(F)F)nc2n1,IC50,[14],0.08 µM
CCc1nnc2ccc(S(=O)(=O)N(Cc3cccc(F)c3)c3ccc(OC)cc3)cn12,IC50 at 72 h,[4],18.2 µM
Cc1ccccc1N(C)C(=O)C(c1cncnc1)N(Cc1cccc(SC(F)(F)F)c1)C1CC1 (centres undefined),CC50,[12],> 30 µM
same,EC50,[13],1 µM
COc1ccc(-c2cc(-c3cc(Cl)sc3Cl)nc(S)n2)cc1OCc1ccccc1,IC50,[2],2.2 µg/mL
same,IC50,[3],4.2 µg/mL
CC(C)CC(CN1CCN(c2ncccn2)CC1)Nc1ccnc2cc(Cl)ccc12 (centres undefined),IC50,[14],0.46 µM
same,IC50,[5],0.352 µM
Cc1cc(C)nc(NS(=O)(=O)c2ccc(-n3cc(COc4ccccc4)nn3)cc2)n1,IC50,[1],> 50 µg/mL
Cc1nn(-c2ccccc2)c(-n2cncn2)c1-c1cc(-c2ccc(F)cc2)nc2nc3ccccc3n12,IC50,[3],0.04 µg/mL
O=S(=O)(c1ccc(-n2cc(COc3ccc(I)cc3)nn2)cc1)N1CCN(c2ccccn2)CC1,IC50,[1],12 µg/mL
O=[N+]([O-])c1ccc(OCc2cn(-c3ccc(S(=O)(=O)N4CCN(c5ccccn5)CC4)cc3)nn2)cc1,IC50,[1],> 50 µg/mL
COc1ccc2nc(/C=C/c3ccncc3)cc(NC3CCCCC3)c2c1,IC50,[7],0.27 µM
Cc1ccccc1N(C)C(=O)C(c1cccnc1)N(Cc1cccc(SC(F)(F)F)c1)C1CC1 (centres undefined),CC50,[8],> 30 µM
COc1ccc(C2c3c(C)n[nH]c3Oc3nc4oc(=O)c(C#N)c(N)c4c(N)c32)cc1OC (centres undefined),IC50,[1],0.96 µg/mL
COc1ccc2nc(/C=C/c3ccncc3)cc(N3CCCC3)c2c1,IC50,[7],0.36 µM
O=C(N/N=C/c1cn(-c2ccc(Cl)cc2)nn1)c1ccncc1,IC50,[1],14.5 µM
O=S(=O)(c1ccc(-n2cc(COc3ccc(F)cc3)nn2)cc1)N1CCN(c2ccccn2)CC1,IC50,[1],> 50 µg/mL
O=c1ccc2ccc(OCc3cn(-c4ccc(S(=O)(=O)N5CCN(c6ccccn6)CC5)cc4)nn3)cc2o1,IC50,[1],> 73.5 µg/mL
Cc1nn(-c2ccccc2)c(-n2cncn2)c1-c1cc(-c2cc[nH]c2)nc2nc3ccccc3n12,IC50,[3],0.09 µg/mL
O=S(=O)(c1ccc(-n2cc(COc3ccccc3)nn2)cc1)N1CCN(c2ccccn2)CC1,IC50,[1],48.5 µg/mL
O=c1n(-c2cccc(Cl)c2)nc2c(S(=O)(=O)N3CCCCC3)cccn12,IC50 at 72 h,[4],> 64 µM
same,IC50,[5],2.24 µM
Cc1n[nH]c2c1C(c1ccc(Cl)cc1)c1c(nc3oc(=O)c(C#N)c(N)c3c1N)O2 (centres undefined),IC50,[1],0.84 µg/mL
